From US8808664B2, “Lipidated glycoprotein particles and methods of use” (Ramot at Tel-Aviv University Ltd., priority 2004, dated 2014)

What was measured:
[1] = Efficiency of entrapment of drugs/bioactive agents in collagen disks or particles; format: physicochemical
Method: Efficiency of entrapment of drugs/bioactive agents in the collagen disks or particles, and kinetics of drug efflux for small molecular weight drugs was determined utilizing absorption spectra (mostly in an ELISA plate reader), fluorescence emission spectra (mostly in a fluorescence plate reader), and HPLC. Half-life data was processed according to a theoretical framework previously developed for liposomes (Margalit et al., 1991), incorporated herein in its entirety) which yields the rate constant for drug efflux.

[2] = tested on: C26 colon adenocarcimona cell line; assay: Treatment of multi-drug resistant cell lines, cell survival by MTT assay; format: cell-based, mouse; details: 24-28 hours post-treatment
Method: (§1) FIGS. 6A-6C show results for three cell lines, C26 (FIG. 6A), HT29 (FIG. 6B) and […], in terms of response to chemotherapeutic drugs encapsulated in collagen particles. The bars represent 60-64 repeats and the error bars represent the standard deviation. Three asterisks (***) indicate p<0.001.
(§2) Cells were seeded onto 96 well plates, and the experiment was initiated at semi-confluency, usually 24 hours post seeding. For the test system, cells were given a selected dose of the drug of choice, which was entrapped in a collagen particle formulation (washed of excess free drug prior to use). The controls were given the same dose of free drug, and a dose of drug-free collagen particles at a dose similar to that of the test system. Cell survival was determined 24-28 hours post-treatment, using the MTT assay (Nutt, et al. 2000; and Larsen et al., 2000).

[3] = tested on: HT29 colon adenocarcimona cell line; assay: as above; format: cell-based, human; details: 24-28 hours post-treatment
Method: as §1, §2

glioma C6 line = assay: as above; format: cell-based, rat; details: 24-28 hours post-treatment
Method: as §1, §2

[4] = Collagen Disks (1-20 mm in a diameter)
[5] = Collagen particles (0.5-10 μm in diameter)

Row | Compound | % Entrapment [1, 4] [%] | % Entrapment [1, 5] [%] | cell survival / response (MTT), FIGS. 6A-6C [2] | cell survival / response (MTT), FIGS. 6A-6C [3] | cell survival / response (MTT), FIGS. 6A-6C (glioma C6 line)
1 | O=C(N[C@H](CO)[C@H](O)c1ccc([N+](=O)[O-])cc1)C(Cl)Cl [CAM, chloramphenicol] | 89.5 ± 1.4 | 94.1 ± 0.8 |  |  | 
2 | Insulin: high molecular weight drug entrapped in collagen particles and disks | 89.4 ± 2.3 | 91.2 ± 0.7 |  |  | 
3 | CO[C@@]12[C@H](COC(N)=O)C3=C(C(=O)C(C)=C(N)C3=O)N1C[C@@H]1N[C@@H]12 [MMC, Mitomycin C] | 80.2 ± 1.0 | 67.3 ± 2.1 |  |  | 
4 | COc1cccc2c1C(=O)c1c(O)c3c(c(O)c1C2=O)C[C@@](O)(C(=O)CO)C[C@@H]3O[C@H]1C[C@H](N)[C@H](O)[C@H](C)O1 [DOX, doxorubicin] | 78.4 ± 2.4 | 71.9 ± 0.4 | typical for the inherent form of MDR | typical for the inherent form of MDR | typical for the inherent form of MDR
